Data taken from patent publication US20080167272A1, “Thalidomide metabolites and methods of use” (Auckland Uniservices Limited, priority 2005, published 2008).

Tests used:
TNF = experiment: Modulation of TNF production in Colon 38 tumour-bearing mice (serum and tumour, ELISA); format: in vivo; conditions: 3 h; for effect on DMXAA-induced tumour TNF level: FIG. 3B
Description: Mice with Colon 38 tumours, approximately 5-7 mm in diameter, were divided into groups of 5. One group was untreated. Other groups were treated with DMXAA (25 mg/kg) alone; DMXAA (25 mg/kg)+thalidomide (100 mg/kg), DMXAA (25 mg/kg)+PG (100 mg/kg), DMXAA (25 mg/kg)+PiG (100 mg/kg), DMXAA (25 mg/kg)+CG (100 mg/kg), DMXAA (25 mg/kg)+thalidomide (20 mg/kg), DMXAA (25 mg/kg)+CG (20 mg/kg), and thalidomide, PG, PiG or CG only at 100 and 200 mg/kg. Three hours after treatment, mice were anaesthetized with halothane (NZ Pharmacology Ltd., Christchurch, New Zealand), and blood was collected from the ocular sinus and tumours were excised. Blood was coagulated overnight at 4° C., and then centrifuged for 30 min at 2,000×g and 4° C., and the serum was removed and stored at −80° C. until use. Tumour tissues were weighed and homogenized in 1.5 ml α-minimal essential medium (Gibco, Grand Island, N.Y., USA). The homogenates were centrifuged (2,000×g, 30 min, 4° C.) and supernatant was removed and re-centrifuged (14,000×g, 30 min, 4° C.). The final supernatants were removed and kept at −80° C. until use. TNF levels in serum and supernatants derived from tumour homogenates were assayed for TNF as described in section 4 (below).
TNF was assayed using a commercially available ELISA kit (OpEIA human or murine TNF kit, PharMingen, San Diego, Calif., USA), according to the manufacturer's instructions. Briefly, samples (100 μl/well) in duplicate together with a serial dilution of TNF (31.25-2000 pg/ml) for the standard curve, were added to flat-bottom 96-well plates pre-coated with immobilised monoclonal anti-TNF antibody and incubated at room temperature for 2 h. The wells were then washed, biotinylated polyclonal antibody to TNF was added, followed by peroxidase-labelled streptavidin, and incubated at room temperature for 1 h. The wells were washed again, and the substrate, tetramethylbenzidine and hydrogen peroxide was added and after 10 min the reaction was stopped with 2 N sulphuric acid. The absorbance at 450 nm was determined using a microtitre plate reader.

[1] = Stability of CG in PBS at different pH (HPLC); format: physicochemical
Description: CG (50 μM) with 60 μM of phenacetin (as an internal standard) at pH 3.5, 6.8, 7.1, 7.4, 7.7 and 8 in 8 mm clear polyethylene starburst conical snap vials (Alltech, Deerfield, Ill., USA), was incubated in the autosampler (Waters Associates, Milford, Mass., USA) at 37° C. Aliquots (50 μl) of the solutions were then automatically loaded at 0, 6, 12, 18 and 24 hours after incubation onto a Waters Breeze chromatograph (Waters Associates, Milford, Mass., USA) which consisted of a Model 717plus autosampler, Model 1525 binary pump and Model 2487 dual wavelength absorbance detector.
Compounds were separated using a previously described (Chung et al, 2004) HPLC assay for thalidomide using a 100×4.6 mm stainless steel Luna 5 μm Phenylhexyl column (Phenomenex, Torrance, Calif., USA) and a mobile phase (Milli Q water:acetonitrile 10:1.3 v/v) that was pumped at a flow rate of 2 ml/min. Thalidomide and phenacetin were detected at ultraviolet wavelengths of 220 and 248 nm, respectively. The retention times of phenacetin and thalidomide and were 13 and 11 min, respectively. Data acquisition and integration was achieved using Breeze™ Software, Milford, Calif., USA. Each HPLC run included standard curves of thalidomide (0.6-100 μM) or CG (0.2-50 μM) with phenacetin (60 μM) as the internal standard in PBS. […] The r^2 of calibration curves of thalidomide was 0.9995, and for CG calibration curves was 0.9999. The intra-assay recovery was 90-110% (n=8) and the CV was 5-9% (n=4), while the inter-assay recovery was 96-104% (n=15) and the CV was 2-4% (n=6).
To construct the calibration curve, the peak-area ratios to the internal standard were plotted against thalidomide concentration and the best-fit straight line was obtained by linear regression analysis. The correlation coefficient of the calibration curves had r^2 values of greater than 0.9995. The thalidomide/phenacetin peak ratio was determined for all samples and the concentration of thalidomide in each sample was determined from the calibration curve.
The ratio of the area of the thalidomide peak or the CG peak to that of the phenacetin peak in the HPLC chromatographs then calculated and the concentration of thalidomide and CG was determined using the calibration curve. The percentage degradation of CG was calculated as: [1-(CG concentration after incubation/starting concentration)]×100.

## O=C1CCC(NC(=O)c2ccccc2C(=O)O)C(=O)N1 (stereo not drawn) [CG, 2-{[(2,6-Dioxo-3-piperidinyl)amino]carbonyl}benzoic acid]
TNF; 20 mg/kg co-administered with DMXAA 25 mg/kg
  effect on DMXAA-induced tumour TNF level: significantly increased
TNF; 100 mg/kg co-administered with DMXAA 25 mg/kg, FIG. 3A
  effect on DMXAA-induced serum TNF level: decreased
TNF; 100 mg/kg co-administered with DMXAA 25 mg/kg
  effect on DMXAA-induced tumour TNF level: significantly increased
[1]; low pH
  stability in solution: unstable
[1]; pH 3.5, 37° C.
  CG remaining in the solution after 24 h: 21.5%
[1]; pH 3.5, 24 h incubation
  CG transformed into thalidomide: 42%
[1]; pH 6.8, 7.1, 7.4, 7.7 or 8
  thalidomide in CG solutions after incubation: not detected
[1]; pH 6.8, 37° C.
  CG remaining in solution after 24 h: 81.75%
[1]; pH 7.1, 37° C.
  CG remaining in solution after 24 h: 50.1%
[1]; pH 7.4, 37° C.
  CG remaining in solution after 24 h: 46.6%
[1]; pH 7.7, 37° C.
  CG remaining in the solution after 24 h: 8.6%
[1]; pH 8, 37° C.
  CG remaining in the solution after 24 h: 0%
[1]; pHs between 6.8-7.4
  stability in solution: stable
[1]; physiological conditions
  stability compared with thalidomide: more stable than thalidomide
[1]; physiological conditions, after 6 h
  CG degraded: 1.3-20%
